Molecular target: T1, CYP1A2 in pooled HLMs (Homo sapiens, UniProt P05177)
T1 construct: the native CYPs present in HLM; tissue Corning (Amsterdam, The Netherlands); host or cells: pooled human liver microsomes, 150 donors, mixed gender
T1 sequence (P05177 1-516): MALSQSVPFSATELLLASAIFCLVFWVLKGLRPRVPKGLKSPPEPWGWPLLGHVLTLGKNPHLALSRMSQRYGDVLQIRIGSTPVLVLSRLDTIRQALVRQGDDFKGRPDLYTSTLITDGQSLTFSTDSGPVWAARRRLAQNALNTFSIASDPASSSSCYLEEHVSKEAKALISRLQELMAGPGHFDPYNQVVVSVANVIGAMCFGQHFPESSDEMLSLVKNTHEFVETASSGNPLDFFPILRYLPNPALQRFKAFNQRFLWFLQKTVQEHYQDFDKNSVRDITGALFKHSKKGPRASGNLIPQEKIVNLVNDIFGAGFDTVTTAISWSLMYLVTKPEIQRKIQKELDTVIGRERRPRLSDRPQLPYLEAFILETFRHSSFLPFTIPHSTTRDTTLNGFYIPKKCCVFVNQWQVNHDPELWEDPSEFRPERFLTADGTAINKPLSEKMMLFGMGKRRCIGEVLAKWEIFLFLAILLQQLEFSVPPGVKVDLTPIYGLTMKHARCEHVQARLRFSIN
Experiment: Pooled HLM incubation with CYP1A2 probe substrate (ISEF determination)
Type: in vitro ADME
Conditions: acetaminophen formation
Experimental: To normalize for differences in intrinsic CYP activity between Supersome™ and pooled HLMs and enable scaling of the activities to the in vivo situation, CYP-specific ISEF values need to be established. […] The incubation method was similar as used for the CPF kinetic incubation assay described above, except that certain incubation conditions were replaced by the conditions listed in Table 1. The samples obtained were analyzed by UPLC-PDA for acetaminophen, 4-hydroxymephenytoin, and 6β-hydroxytestosterone formation catalyzed by 1A2, 2C19 and 3A4, or LC–MS/MS for (±)-hydroxybupropion formation catalyzed by 2B6.
As mentioned before, the in vitro apparent kinetic parameters (Vmax and Km) for pathway 1 and pathway 2 in the HLM-based approach, and pathway 3 in both approaches were all obtained directly from reported studies using pooled HLMs (Buratti et al. [2003]; Sams et al. [2004]; Zhao et al. [2019]). Therefore, no extra calculations were required to define these parameters. […] It should be noted that the kinetic parameters for pathway 4 used in the two approaches were calculated as mean of the kinetic parameters (Vmax and Km) obtained using 25 individual HP samples (with correction for total protein concentration of each plasma sample).

CCOc1ccc(NC(C)=O)cc1 [Phenacetin, phenacetin]
Vmax (pooled HLMs): 0.15 nmol/min/mg microsomal protein

From publication PMC9013686, “Inter-individual variation in chlorpyrifos toxicokinetics characterized by physiologically based kinetic (PBK) and Monte Carlo simulation comparing human liver microsome and Supersome™ cytochromes P450 (CYP)-specific kinetic data as model input” (Archives of Toxicology, 2022)
